One assay addresses Translocator protein (Homo sapiens, UniProt P30536). Nature of the assay: PDSP Secondary Binding target: TSPO - Compounds are tested at 10 uM concentration, plate are incubated at room temperature in the dark for 90 minutes. Reaction are stopped by vacuum filtration onto 0.3% polyethyleneimine soaked filter mats using Filtermate harvester. Scintillation cocktail is then melted onto microwave-dried filters on a hot plate and the radio activity is counted in Microbia counter.

Assay [1] has as its target Sigma intracellular receptor 2 (Homo sapiens, UniProt Q5BJF2). Nature of the assay: PDSP Secondary Binding target: TMEM97 - Compounds are tested at 10 uM concentration, plate are incubated at room temperature in the dark for 90 minutes. Reaction are stopped by vacuum filtration onto 0.3% polyethyleneimine soaked filter mats using Filtermate harvester. Scintillation cocktail is then melted onto microwave-dried filters on a hot plate and the radio activity is counted in Microbia counter.

The target of assay [2] is T1, Muscarinic acetylcholine receptor M4 (Homo sapiens, UniProt P08173).
T1 sequence (P08173 whole entry): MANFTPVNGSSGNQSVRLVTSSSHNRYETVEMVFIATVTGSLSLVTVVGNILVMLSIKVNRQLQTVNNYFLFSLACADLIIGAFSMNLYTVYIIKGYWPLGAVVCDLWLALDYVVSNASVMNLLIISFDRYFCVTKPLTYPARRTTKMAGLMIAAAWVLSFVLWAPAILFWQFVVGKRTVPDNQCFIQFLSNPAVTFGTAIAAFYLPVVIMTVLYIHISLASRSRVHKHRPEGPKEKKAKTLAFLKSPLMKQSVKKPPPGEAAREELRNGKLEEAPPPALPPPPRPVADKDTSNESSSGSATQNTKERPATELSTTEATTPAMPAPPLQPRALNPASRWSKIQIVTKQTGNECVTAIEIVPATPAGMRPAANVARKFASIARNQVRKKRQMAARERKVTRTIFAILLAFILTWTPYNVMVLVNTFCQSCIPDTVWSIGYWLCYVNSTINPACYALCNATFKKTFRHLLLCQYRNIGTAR
The experiment in a line: PDSP Secondary Binding target: CHRM4 - Compounds are tested at 10 uM concentration, plate are incubated at room temperature in the dark for 90 minutes. Reaction are stopped by vacuum filtration onto 0.3% polyethyleneimine soaked filter mats using Filtermate harvester. Scintillation cocktail is then melted onto microwave-dried filters on a hot plate and the radio activity is counted in Microbia counter.

Assay [3] addresses T2, Muscarinic acetylcholine receptor M5 (Homo sapiens, UniProt P08912).
T2 sequence (P08912 whole entry): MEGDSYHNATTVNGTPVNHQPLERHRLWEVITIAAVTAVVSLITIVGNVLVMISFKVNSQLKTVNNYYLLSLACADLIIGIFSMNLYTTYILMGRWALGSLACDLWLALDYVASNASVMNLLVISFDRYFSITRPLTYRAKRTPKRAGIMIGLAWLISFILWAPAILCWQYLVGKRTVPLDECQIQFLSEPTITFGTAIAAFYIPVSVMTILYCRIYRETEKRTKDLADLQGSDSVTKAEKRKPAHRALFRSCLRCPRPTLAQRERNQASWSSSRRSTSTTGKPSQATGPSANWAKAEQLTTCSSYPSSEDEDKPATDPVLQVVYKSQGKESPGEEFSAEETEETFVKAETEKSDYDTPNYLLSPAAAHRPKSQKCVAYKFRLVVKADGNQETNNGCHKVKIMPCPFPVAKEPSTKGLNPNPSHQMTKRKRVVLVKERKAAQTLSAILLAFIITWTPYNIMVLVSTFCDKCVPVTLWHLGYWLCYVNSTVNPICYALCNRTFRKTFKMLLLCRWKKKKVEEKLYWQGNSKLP
Nature of the assay: PDSP Secondary Binding target: CHRM5 - Compounds are tested at 10 uM concentration, plate are incubated at room temperature in the dark for 90 minutes. Reaction are stopped by vacuum filtration onto 0.3% polyethyleneimine soaked filter mats using Filtermate harvester. Scintillation cocktail is then melted onto microwave-dried filters on a hot plate and the radio activity is counted in Microbia counter.

Assay [4] concerns the target T3, 5-hydroxytryptamine receptor 2C (Homo sapiens, UniProt P28335).
T3 sequence (P28335 whole entry): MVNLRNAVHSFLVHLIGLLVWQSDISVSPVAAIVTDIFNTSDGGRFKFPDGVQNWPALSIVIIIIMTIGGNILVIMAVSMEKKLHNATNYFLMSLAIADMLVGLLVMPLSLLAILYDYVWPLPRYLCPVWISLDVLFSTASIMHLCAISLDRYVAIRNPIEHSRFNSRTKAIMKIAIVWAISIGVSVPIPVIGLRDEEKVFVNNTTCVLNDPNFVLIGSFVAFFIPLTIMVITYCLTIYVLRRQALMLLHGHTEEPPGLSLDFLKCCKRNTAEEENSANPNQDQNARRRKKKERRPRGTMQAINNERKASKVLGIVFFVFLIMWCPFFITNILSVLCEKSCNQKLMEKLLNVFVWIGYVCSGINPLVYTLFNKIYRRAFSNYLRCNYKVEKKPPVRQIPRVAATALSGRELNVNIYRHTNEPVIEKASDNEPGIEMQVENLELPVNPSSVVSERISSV
The experiment in a line: PDSP Secondary Binding target: HTR2C - Compounds are tested at 10 uM concentration, plate are incubated at room temperature in the dark for 90 minutes. Reaction are stopped by vacuum filtration onto 0.3% polyethyleneimine soaked filter mats using Filtermate harvester. Scintillation cocktail is then melted onto microwave-dried filters on a hot plate and the radio activity is counted in Microbia counter.

Assay [5] has as its target 5-hydroxytryptamine receptor 7 (Homo sapiens, UniProt P34969). Nature of the assay: PDSP Secondary Binding target: HTR7 - Compounds are tested at 10 uM concentration, plate are incubated at room temperature in the dark for 90 minutes. Reaction are stopped by vacuum filtration onto 0.3% polyethyleneimine soaked filter mats using Filtermate harvester. Scintillation cocktail is then melted onto microwave-dried filters on a hot plate and the radio activity is counted in Microbia counter.

The next assay concerns the target Histamine H1 receptor (Homo sapiens, UniProt P35367). The experiment in a line: PDSP Secondary Binding target: HRH1 - Compounds are tested at 10 uM concentration, plate are incubated at room temperature in the dark for 90 minutes. Reaction are stopped by vacuum filtration onto 0.3% polyethyleneimine soaked filter mats using Filtermate harvester. Scintillation cocktail is then melted onto microwave-dried filters on a hot plate and the radio activity is counted in Microbia counter.

The target of assay [6] is Sigma non-opioid intracellular receptor 1 (Homo sapiens, UniProt Q99720). Nature of the assay: PDSP Secondary Binding target: SIGMAR1 - Compounds are tested at 10 uM concentration, plate are incubated at room temperature in the dark for 90 minutes. Reaction are stopped by vacuum filtration onto 0.3% polyethyleneimine soaked filter mats using Filtermate harvester. Scintillation cocktail is then melted onto microwave-dried filters on a hot plate and the radio activity is counted in Microbia counter.

Assay [7] concerns the target Sodium-dependent noradrenaline transporter (Homo sapiens, UniProt P23975). The experiment in a line: PDSP Secondary Binding target: SLC6A2 - Compounds are tested at 10 uM concentration, plate are incubated at room temperature in the dark for 90 minutes. Reaction are stopped by vacuum filtration onto 0.3% polyethyleneimine soaked filter mats using Filtermate harvester. Scintillation cocktail is then melted onto microwave-dried filters on a hot plate and the radio activity is counted in Microbia counter.

Assay [8] has as its target T4, Muscarinic acetylcholine receptor M1 (Homo sapiens, UniProt P11229).
T4 sequence (P11229 whole entry): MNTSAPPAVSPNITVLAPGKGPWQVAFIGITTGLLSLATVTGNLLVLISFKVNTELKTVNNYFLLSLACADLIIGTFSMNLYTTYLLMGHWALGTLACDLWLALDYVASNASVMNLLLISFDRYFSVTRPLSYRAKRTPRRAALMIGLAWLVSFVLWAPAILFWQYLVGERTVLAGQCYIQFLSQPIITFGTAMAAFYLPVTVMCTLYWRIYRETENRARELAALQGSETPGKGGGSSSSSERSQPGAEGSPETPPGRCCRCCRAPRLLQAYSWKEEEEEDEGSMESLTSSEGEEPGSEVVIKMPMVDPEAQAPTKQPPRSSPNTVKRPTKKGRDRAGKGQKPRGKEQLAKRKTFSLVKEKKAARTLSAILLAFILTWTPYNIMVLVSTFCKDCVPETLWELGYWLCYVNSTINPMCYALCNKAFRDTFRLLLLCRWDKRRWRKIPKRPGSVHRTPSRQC
The experiment in a line: PDSP Secondary Binding target: CHRM1 - Compounds are tested at 10 uM concentration, plate are incubated at room temperature in the dark for 90 minutes. Reaction are stopped by vacuum filtration onto 0.3% polyethyleneimine soaked filter mats using Filtermate harvester. Scintillation cocktail is then melted onto microwave-dried filters on a hot plate and the radio activity is counted in Microbia counter.

The target in assay [9] is T5, 5-hydroxytryptamine receptor 3A (Homo sapiens, UniProt P46098).
T5 sequence (P46098 whole entry): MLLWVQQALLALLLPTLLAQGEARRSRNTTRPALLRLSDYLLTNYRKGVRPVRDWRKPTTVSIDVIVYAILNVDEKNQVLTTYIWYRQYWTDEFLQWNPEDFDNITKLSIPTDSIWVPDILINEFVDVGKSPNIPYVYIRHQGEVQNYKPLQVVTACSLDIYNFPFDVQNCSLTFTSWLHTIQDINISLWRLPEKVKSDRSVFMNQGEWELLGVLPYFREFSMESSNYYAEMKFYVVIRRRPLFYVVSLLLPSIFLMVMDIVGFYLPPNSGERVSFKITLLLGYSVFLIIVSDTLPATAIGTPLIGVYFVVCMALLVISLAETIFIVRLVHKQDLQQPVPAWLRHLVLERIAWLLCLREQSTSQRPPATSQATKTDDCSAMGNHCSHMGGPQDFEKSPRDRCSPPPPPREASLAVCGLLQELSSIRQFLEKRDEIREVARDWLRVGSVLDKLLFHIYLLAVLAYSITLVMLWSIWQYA
Nature of the assay: PDSP Secondary Binding target: HTR3A - Compounds are tested at 10 uM concentration, plate are incubated at room temperature in the dark for 90 minutes. Reaction are stopped by vacuum filtration onto 0.3% polyethyleneimine soaked filter mats using Filtermate harvester. Scintillation cocktail is then melted onto microwave-dried filters on a hot plate and the radio activity is counted in Microbia counter.

The target in the next assay is Mu-type opioid receptor (Homo sapiens, UniProt P35372). Nature of the assay: PDSP Secondary Binding target: OPRM1 - Compounds are tested at 10 uM concentration, plate are incubated at room temperature in the dark for 90 minutes. Reaction are stopped by vacuum filtration onto 0.3% polyethyleneimine soaked filter mats using Filtermate harvester. Scintillation cocktail is then melted onto microwave-dried filters on a hot plate and the radio activity is counted in Microbia counter.

A further assay deals with T6, D(4) dopamine receptor (Homo sapiens, UniProt P21917).
T6 sequence (P21917 whole entry): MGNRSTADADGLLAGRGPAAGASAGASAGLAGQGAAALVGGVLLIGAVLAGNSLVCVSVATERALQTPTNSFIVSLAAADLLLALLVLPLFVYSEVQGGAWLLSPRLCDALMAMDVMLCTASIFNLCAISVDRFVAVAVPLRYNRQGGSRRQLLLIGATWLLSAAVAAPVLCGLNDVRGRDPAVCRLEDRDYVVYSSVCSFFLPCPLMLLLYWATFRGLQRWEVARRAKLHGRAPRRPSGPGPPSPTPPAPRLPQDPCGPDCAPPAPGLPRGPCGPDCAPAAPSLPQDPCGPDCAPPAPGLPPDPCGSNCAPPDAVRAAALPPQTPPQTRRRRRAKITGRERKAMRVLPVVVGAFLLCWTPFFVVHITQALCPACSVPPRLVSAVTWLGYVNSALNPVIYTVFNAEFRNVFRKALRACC
Nature of the assay: PDSP Secondary Binding target: DRD4 - Compounds are tested at 10 uM concentration, plate are incubated at room temperature in the dark for 90 minutes. Reaction are stopped by vacuum filtration onto 0.3% polyethyleneimine soaked filter mats using Filtermate harvester. Scintillation cocktail is then melted onto microwave-dried filters on a hot plate and the radio activity is counted in Microbia counter.

Assay [10] has as its target 5-hydroxytryptamine receptor 6 (Homo sapiens, UniProt P50406). The experiment in a line: PDSP Secondary Binding target: HTR6 - Compounds are tested at 10 uM concentration, plate are incubated at room temperature in the dark for 90 minutes. Reaction are stopped by vacuum filtration onto 0.3% polyethyleneimine soaked filter mats using Filtermate harvester. Scintillation cocktail is then melted onto microwave-dried filters on a hot plate and the radio activity is counted in Microbia counter.

In assay [11] the target is 5-hydroxytryptamine receptor 5A (Homo sapiens, UniProt P47898). The experiment in a line: PDSP Secondary Binding target: HTR5A - Compounds are tested at 10 uM concentration, plate are incubated at room temperature in the dark for 90 minutes. Reaction are stopped by vacuum filtration onto 0.3% polyethyleneimine soaked filter mats using Filtermate harvester. Scintillation cocktail is then melted onto microwave-dried filters on a hot plate and the radio activity is counted in Microbia counter.

For assay [12], the target named is 5-hydroxytryptamine receptor 1D (Homo sapiens, UniProt P28221). Nature of the assay: PDSP Secondary Binding target: HTR1D - Compounds are tested at 10 uM concentration, plate are incubated at room temperature in the dark for 90 minutes. Reaction are stopped by vacuum filtration onto 0.3% polyethyleneimine soaked filter mats using Filtermate harvester. Scintillation cocktail is then melted onto microwave-dried filters on a hot plate and the radio activity is counted in Microbia counter.

Structures can show the parent of a compound that is named as a salt. A value given as a limit tells only on which side of the number the result lay.

Sequence of Sigma intracellular receptor 2 (Q5BJF2 whole entry): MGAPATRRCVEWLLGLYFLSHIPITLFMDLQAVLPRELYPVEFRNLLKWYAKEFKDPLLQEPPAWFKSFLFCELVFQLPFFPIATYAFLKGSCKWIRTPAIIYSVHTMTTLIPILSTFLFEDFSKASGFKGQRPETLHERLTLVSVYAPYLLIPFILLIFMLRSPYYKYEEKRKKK
Sequence of Sigma non-opioid intracellular receptor 1 (Q99720 whole entry): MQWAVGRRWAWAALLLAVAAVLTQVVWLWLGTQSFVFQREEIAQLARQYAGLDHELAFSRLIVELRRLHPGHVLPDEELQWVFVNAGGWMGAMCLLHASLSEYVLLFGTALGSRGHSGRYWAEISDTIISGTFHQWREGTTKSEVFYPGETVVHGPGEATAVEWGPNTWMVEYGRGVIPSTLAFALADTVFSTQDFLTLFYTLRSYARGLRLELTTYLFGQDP
Sequence of Histamine H1 receptor (P35367 whole entry): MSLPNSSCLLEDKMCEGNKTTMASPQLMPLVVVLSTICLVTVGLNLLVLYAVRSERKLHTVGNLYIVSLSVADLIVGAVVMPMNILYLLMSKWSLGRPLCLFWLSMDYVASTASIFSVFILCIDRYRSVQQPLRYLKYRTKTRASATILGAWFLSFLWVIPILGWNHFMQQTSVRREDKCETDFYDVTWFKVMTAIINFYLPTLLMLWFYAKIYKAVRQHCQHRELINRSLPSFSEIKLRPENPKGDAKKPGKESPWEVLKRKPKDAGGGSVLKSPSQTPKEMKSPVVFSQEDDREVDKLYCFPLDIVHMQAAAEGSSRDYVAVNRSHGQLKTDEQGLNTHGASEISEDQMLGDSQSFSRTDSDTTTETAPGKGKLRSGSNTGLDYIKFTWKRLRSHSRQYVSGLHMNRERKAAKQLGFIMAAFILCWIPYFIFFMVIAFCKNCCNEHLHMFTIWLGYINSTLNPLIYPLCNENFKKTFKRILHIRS
Sequence of Translocator protein (P30536 whole entry): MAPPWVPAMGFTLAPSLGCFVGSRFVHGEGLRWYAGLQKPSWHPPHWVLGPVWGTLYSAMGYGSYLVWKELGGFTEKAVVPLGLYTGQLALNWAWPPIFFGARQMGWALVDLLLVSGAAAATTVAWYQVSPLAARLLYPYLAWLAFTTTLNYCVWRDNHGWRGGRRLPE
Sequence of Sodium-dependent noradrenaline transporter (P23975 whole entry): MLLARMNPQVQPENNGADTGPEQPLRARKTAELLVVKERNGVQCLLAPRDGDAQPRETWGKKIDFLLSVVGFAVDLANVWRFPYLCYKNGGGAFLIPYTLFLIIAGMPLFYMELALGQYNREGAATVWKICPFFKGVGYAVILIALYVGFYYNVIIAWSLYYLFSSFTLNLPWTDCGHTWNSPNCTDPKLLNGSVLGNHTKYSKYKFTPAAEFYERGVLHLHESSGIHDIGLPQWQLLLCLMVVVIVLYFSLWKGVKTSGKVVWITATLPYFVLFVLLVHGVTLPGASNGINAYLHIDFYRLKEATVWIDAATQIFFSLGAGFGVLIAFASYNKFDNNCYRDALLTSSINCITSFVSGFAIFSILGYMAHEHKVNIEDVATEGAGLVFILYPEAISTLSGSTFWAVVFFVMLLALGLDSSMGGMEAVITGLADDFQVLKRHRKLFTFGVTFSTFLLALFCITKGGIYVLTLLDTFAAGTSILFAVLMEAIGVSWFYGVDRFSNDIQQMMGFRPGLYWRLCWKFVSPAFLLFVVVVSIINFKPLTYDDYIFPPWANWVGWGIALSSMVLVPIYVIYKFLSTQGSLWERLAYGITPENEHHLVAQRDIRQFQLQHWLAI
Sequence of 5-hydroxytryptamine receptor 6 (P50406 whole entry): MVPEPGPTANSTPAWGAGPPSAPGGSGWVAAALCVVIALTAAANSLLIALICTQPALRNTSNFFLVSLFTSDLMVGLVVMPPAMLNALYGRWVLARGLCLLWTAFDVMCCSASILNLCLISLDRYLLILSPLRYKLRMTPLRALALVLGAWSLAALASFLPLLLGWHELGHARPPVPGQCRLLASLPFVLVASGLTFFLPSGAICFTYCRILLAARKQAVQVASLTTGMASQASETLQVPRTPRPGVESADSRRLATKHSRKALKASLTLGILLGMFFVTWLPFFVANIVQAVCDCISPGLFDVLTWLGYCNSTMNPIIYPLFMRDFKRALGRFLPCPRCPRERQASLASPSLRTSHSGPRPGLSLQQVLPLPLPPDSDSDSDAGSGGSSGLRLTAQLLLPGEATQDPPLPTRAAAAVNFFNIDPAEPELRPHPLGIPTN
Sequence of 5-hydroxytryptamine receptor 1D (P28221 whole entry): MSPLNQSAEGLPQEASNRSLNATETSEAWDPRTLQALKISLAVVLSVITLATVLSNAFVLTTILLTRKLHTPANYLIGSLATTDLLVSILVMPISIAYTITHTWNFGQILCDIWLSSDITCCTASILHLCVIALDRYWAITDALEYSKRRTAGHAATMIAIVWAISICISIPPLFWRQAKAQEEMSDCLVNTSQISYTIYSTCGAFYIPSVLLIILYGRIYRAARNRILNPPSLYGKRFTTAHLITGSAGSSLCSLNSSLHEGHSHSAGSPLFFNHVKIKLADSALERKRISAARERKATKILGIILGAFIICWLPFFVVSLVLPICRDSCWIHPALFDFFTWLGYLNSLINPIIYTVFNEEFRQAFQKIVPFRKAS
Sequence of Mu-type opioid receptor (P35372 whole entry): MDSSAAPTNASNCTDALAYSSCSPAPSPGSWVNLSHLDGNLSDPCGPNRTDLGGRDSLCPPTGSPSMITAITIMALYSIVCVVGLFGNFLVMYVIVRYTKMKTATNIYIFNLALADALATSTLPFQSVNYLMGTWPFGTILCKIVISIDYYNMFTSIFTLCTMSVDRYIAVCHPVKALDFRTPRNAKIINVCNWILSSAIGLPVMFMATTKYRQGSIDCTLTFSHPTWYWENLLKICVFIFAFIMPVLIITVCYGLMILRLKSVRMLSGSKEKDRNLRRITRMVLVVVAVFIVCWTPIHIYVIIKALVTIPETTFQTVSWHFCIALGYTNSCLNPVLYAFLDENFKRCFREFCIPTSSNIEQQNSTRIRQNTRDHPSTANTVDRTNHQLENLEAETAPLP
Sequence of 5-hydroxytryptamine receptor 7 (P34969 whole entry): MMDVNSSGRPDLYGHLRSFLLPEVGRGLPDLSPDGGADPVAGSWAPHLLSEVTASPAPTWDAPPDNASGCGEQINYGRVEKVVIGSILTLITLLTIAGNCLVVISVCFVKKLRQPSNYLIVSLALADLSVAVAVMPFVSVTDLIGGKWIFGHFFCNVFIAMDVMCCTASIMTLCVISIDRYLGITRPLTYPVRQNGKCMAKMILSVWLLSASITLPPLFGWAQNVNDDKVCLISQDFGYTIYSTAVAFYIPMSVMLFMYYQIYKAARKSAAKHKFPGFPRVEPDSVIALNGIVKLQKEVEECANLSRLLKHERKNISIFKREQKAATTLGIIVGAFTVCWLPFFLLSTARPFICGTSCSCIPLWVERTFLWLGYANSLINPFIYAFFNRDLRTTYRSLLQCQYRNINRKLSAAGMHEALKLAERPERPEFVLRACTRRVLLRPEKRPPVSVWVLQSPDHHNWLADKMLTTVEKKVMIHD
Sequence of 5-hydroxytryptamine receptor 5A (P47898 whole entry): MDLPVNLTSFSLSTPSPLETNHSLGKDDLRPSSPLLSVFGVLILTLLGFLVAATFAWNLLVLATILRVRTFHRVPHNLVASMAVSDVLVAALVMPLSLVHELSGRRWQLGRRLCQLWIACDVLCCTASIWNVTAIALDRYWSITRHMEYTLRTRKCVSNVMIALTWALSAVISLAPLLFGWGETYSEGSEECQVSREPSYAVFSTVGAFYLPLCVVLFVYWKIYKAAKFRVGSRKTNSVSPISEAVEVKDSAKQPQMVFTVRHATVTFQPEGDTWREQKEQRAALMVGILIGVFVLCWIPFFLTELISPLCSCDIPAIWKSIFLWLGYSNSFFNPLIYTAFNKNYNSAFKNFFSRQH

As usually defined, the Ki is a measure of affinity in units of concentration, obtained from inhibition or displacement. High values mean a looser hold on the target, low ones a stronger hold on the target. Regarding `C[N+]1(C)[C@@H]2C[C@@H](OC(=O)C(O)(c3cccs3)c3cccs3)C[C@H]1[C@@H]1O[C@@H]12` [TIOTROPIUM BROMIDE], the Ki at Translocator protein came to 4290 nM; in assay [1], 2060 nM; in [2], 0.6 nM; in assay [3], 1.22 nM.
Regarding `Clc1ccc(CCCOCCCN2CCCCC2)cc1` [PITOLISANT HYDROCHLORIDE], the Ki in assay [4] was 1990 nM; in [5], 1100 nM; at Histamine H1 receptor, 1200 nM; in assay [1] it was 7.01 nM; in assay [6] it was 0.904 nM; in [2], 899 nM. In assay [7], this compound gave a Ki of 1920 nM.
`Cc1ccc(O)c([C@H](CCN(C(C)C)C(C)C)c2ccccc2)c1` [TOLTERODINE TARTRATE]: the Ki in assay [8] was found to be 8.69 nM; on Histamine H1 receptor it was 127 nM; in assay [1], 167 nM; in assay [6], 216 nM; in [3], 3.86 nM.
As for `CCc1nn2c(C)cc(C)nc2c1Cc1ccc(-c2nnc(C3CCNCC3)o2)cc1`, the Ki turned out to be 360 nM in [9], 489 nM in [1], 2000 nM in [6] and 7720 nM at Mu-type opioid receptor.
On to `CC(C)[C@H](CO)Nc1nc(Nc2cccc(Cl)c2)c2ncn(C(C)C)c2n1` [PURVALANOLA], for which the inhibitory constant (Ki) in assay [4] is 3040 nM; at D(4) dopamine receptor, 4870 nM; in [10], 2270 nM; on Translocator protein, 1520 nM; in assay [11], 7540 nM; in assay [1] it was 1130 nM. The Ki was more than 10000 nM in assay [2], 4400 nM in assay [7] and 3800 nM in assay [12].
